# From US6015900A, “N-aminoalkylfluorenecarboxamides” (Neurogen Corporation, priority 1998, dated 2000)
# Structures can show the parent of a compound that is named as a salt. Where two headings read alike, the source gives them in different places.
# Assays:
# D2 receptors = D2 receptors (Chlorocebus aethiops, UniProt P52702); test: biochemical; format: binding, African Green monkey
# D3 receptors = D3 receptors (Chlorocebus aethiops, UniProt P52703); test: biochemical; format: binding, African Green monkey
# Chain of D3 receptors (P52703 whole entry): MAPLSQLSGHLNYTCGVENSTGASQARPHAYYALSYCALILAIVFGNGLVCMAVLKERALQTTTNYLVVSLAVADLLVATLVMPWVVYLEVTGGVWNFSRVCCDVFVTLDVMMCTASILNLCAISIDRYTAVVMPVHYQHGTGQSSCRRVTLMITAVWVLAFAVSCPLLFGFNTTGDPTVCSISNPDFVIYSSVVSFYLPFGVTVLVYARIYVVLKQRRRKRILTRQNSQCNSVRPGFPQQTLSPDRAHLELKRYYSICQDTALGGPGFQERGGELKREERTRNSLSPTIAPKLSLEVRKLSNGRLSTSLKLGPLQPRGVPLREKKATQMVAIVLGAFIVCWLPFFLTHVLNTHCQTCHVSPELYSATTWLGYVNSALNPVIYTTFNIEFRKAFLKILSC
# [1] = COS cells containing recombinant D2 receptors, 0.5 nM ^3 H-YM 09151-2, nonspecific binding with 1 mM spiperone, read-out: D2 Ki
# [2] = COS cells containing recombinant D3 receptors, 0.5 nM ^3 H-YM 09151-2, nonspecific binding with 1 mM spiperone, read-out: D3 Ki
# Chain of D2 receptors (P52702 whole entry): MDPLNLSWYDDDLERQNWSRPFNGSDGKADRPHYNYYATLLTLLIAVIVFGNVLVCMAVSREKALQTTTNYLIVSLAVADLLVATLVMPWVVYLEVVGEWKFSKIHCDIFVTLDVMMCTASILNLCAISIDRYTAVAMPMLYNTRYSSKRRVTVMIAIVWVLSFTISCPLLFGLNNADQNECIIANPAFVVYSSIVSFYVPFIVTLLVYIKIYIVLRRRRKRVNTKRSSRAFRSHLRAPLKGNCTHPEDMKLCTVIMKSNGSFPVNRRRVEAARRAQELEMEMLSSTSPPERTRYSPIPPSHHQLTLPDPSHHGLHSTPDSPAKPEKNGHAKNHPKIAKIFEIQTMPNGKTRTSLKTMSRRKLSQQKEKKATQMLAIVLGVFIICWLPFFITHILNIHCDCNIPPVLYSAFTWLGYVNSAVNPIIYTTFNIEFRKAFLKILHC
Ki (D2 receptors; [1]),Ki (D3 receptors; [2]),SMILES,Ki (D2 receptors),Ki (D3 receptors)
,,"O=C(NCCCCN1CCN(c2cccc(Cl)c2Cl)CC1)c1ccc2c(c1)Cc1ccccc1-2 [Compound 1, N-{4-[4-(2,3-dichlorophenyl)-1-piperazinyl]butyl}-9H-fluorene-2-carboxamidehydrochloride]",729 nM,3 nM
97 nM,0.7 nM,"O=C(NCCCCN1CCN(c2ccccc2Cl)CC1)c1ccc2c(c1)C(=O)c1ccccc1-2 [Compound 3, N-{4-[4-(2-Chlorophenyl)-1-piperazinyl]butyl}-9-oxo-fluorene-2-arboxamide hydrochloride]",,
150 nM,1 nM,"O=C(NCCCCN1CCN(c2cccc3ccccc23)CC1)c1ccc2c(c1)Cc1ccccc1-2 [Compound 2, N-{4-[4-(1-Naphthyl)-1-piperazinyl]butyl}-9H-fluorene-2-carboxamide hydrochloride]",,
